# Experiment: Observation of the monomer composition after preparation (clarity, solubility, premature polymerization)
# Format: physicochemical
# Details: 2 wt % in 2-octyl cyanoacrylate monomer
# Source text: The characteristics of the composition are observed at about one minute after preparation and later at least twenty-four hours after preparation.
structure (smiles),measurement,setting,value
O=C(O)c1ccccc1O [salicylic acid],solubility in the monomer,inferred from clear solution,soluble
same,premature polymerization of the monomer,up to at least twenty-four hours,does not cause premature polymerization

# Reference: US20040223932A1, “Adhesive treatment for acne” (Closure Medical Corporation, priority 2003, published 2004)
